Reference: ChEMBL document CHEMBL5303304, “EUbOPEN Chemogenomics Library - IncuCyte” (2023)

Tests used:
Assay type in all cases: toxicity, cell-based
HEK-293T = assay: Incucyte cell viability with HEK293T; conditions: human, 10 µM, compound concentration 10 uM
Fibroblast = assay: Incucyte cell viability with human fibroblast; conditions: 10 µM, compound concentration 10 uM
U2OS = assay: Incucyte cell viability with U2OS; conditions: human, 10 µM, compound concentration 10 uM
Also: unitless GR value; below 1 slowed growth and below 0 cell loss.

SMILES	Growth Rate (HEK-293T; 0 h, replicate number 1)	Growth Rate (HEK-293T; 6 h, replicate number 2)	Growth Rate (HEK-293T; 12 h, replicate number 1)	Growth Rate (HEK-293T; 18 h, replicate number 1)	Growth Rate (HEK-293T; 24 h, replicate number 1)	Growth Rate (HEK-293T; 24 h, replicate number 2)	Growth Rate (Fibroblast; 0 h, replicate number 1)	Growth Rate (Fibroblast; 12 h, replicate number 2)	Growth Rate (U2OS; 12 h, replicate number 1)	Growth Rate (U2OS; 12 h, replicate number 2)	Growth Rate (U2OS; 18 h, replicate number 2)	Growth Rate (U2OS; 24 h, replicate number 1)	Growth Rate (U2OS; 24 h, replicate number 2)	Growth Rate (Fibroblast; 24 h, replicate number 1)	Growth Rate (U2OS; 18 h, replicate number 1)	Growth Rate (HEK-293T; 12 h, replicate number 2)	Growth Rate (HEK-293T; 18 h, replicate number 2)	Growth Rate (Fibroblast; 18 h, replicate number 1)	Growth Rate (Fibroblast; 18 h, replicate number 2)	Growth Rate (Fibroblast; 24 h, replicate number 2)	also measured
CC(=O)Nc1nc2c(Oc3cc(-c4ccc(C(F)(F)F)cc4)ncn3)cccc2s1 [AMG-517]	0.87	0.69	0.82	0.67	0.89	0.99	-0.1	0.8	0.8	0.88	0.91	0.86	0.96								Growth Rate (HEK-293T; 6 h, replicate number 1): 0.63; Growth Rate (Fibroblast; 0 h, replicate number 2): -1; Growth Rate (Fibroblast; 6 h, replicate number 1): -0.08; Growth Rate (Fibroblast; 6 h, replicate number 2): -0.6; Growth Rate (Fibroblast; 12 h, replicate number 1): -1; Growth Rate (U2OS; 0 h, replicate number 2): -0.37; Growth Rate (U2OS; 6 h, replicate number 1): 0.79; Growth Rate (U2OS; 6 h, replicate number 2): 0.81
Cc1csc(-c2nnc(Nc3ccc(Oc4ncccc4-c4ccnc(N)n4)cc3)c3ccccc23)c1 [AMG-900]	-0.13							0.98	0.57	0.16	0.17	0.33	0.41	0.75	0.27						Growth Rate (HEK-293T; 0 h, replicate number 2): -0.21; Growth Rate (Fibroblast; 0 h, replicate number 2): -0.73; Growth Rate (U2OS; 6 h, replicate number 1): 0.79; Growth Rate (U2OS; 6 h, replicate number 2): 0.9
CCCCc1oc2ccccc2c1C(=O)c1cc(I)c(OCCN(CC)CC)c(I)c1.Cl [AMIODARONE HYDROCHLORIDE]		-0.04	0.36	0.5	0.45	0.24	0.24	-0.27	0.98					-0.01	0.77	-0.11	0.1	-0.02	-0.44	-0.43	Growth Rate (HEK-293T; 0 h, replicate number 2): -0.99; Growth Rate (HEK-293T; 6 h, replicate number 1): 0.31; Growth Rate (Fibroblast; 6 h, replicate number 2): -0.16; Growth Rate (Fibroblast; 12 h, replicate number 1): 0.4; Growth Rate (U2OS; 0 h, replicate number 1): 0.24; Growth Rate (U2OS; 6 h, replicate number 1): 0.43
O=C(Nc1cccc(Nc2nccc(Nc3cccc(C(F)(F)F)c3)n2)c1)C1CC1 [ANILINOPYRIMIDINE1]		-0.97	-0.71	-0.46	-0.29	-0.38	-1	-0.73	-0.21	-0.42	-0.3	-0.08	-0.1	-0.48	-0.21	-0.79	-0.54	-0.68		-0.55	Growth Rate (HEK-293T; 6 h, replicate number 1): -0.91; Growth Rate (Fibroblast; 6 h, replicate number 1): -0.79; Growth Rate (Fibroblast; 6 h, replicate number 2): -1; Growth Rate (Fibroblast; 12 h, replicate number 1): -0.84; Growth Rate (U2OS; 0 h, replicate number 1): -0.01; Growth Rate (U2OS; 0 h, replicate number 2): 0.91; Growth Rate (U2OS; 6 h, replicate number 1): -0.16; Growth Rate (U2OS; 6 h, replicate number 2): -0.36
Cc1nnc2n1-c1sc(CCC(=O)N3CCOCC3)cc1C(c1ccccc1Cl)=NC2 [APAFANT]			0.78						0.67	0.76		0.88	0.98	0.8	0.88			0.73			Growth Rate (HEK-293T; 0 h, replicate number 2): -0.56; Growth Rate (Fibroblast; 0 h, replicate number 2): -0.81; Growth Rate (U2OS; 0 h, replicate number 1): 0.87; Growth Rate (U2OS; 6 h, replicate number 1): 0.58; Growth Rate (U2OS; 6 h, replicate number 2): 0.99
CC(C)[C@H](C(=O)Nc1ccc(C(=O)NO)cc1)c1ccccc1 [AR-42]	-0.15				0.89	0.37	0.71	0.61	0.83	0.96	0.44	0	0.11	0.78	0.46		0.59	-0.41	0.42	0.61	Growth Rate (HEK-293T; 0 h, replicate number 2): 0.49; Growth Rate (Fibroblast; 0 h, replicate number 2): 0.62; Growth Rate (Fibroblast; 6 h, replicate number 2): 0.66; Growth Rate (Fibroblast; 12 h, replicate number 1): -1; Growth Rate (U2OS; 6 h, replicate number 2): 0.73
O=C(Nc1ccc(OC(F)(F)Cl)cc1)c1cnc(N2CC[C@@H](O)C2)c(-c2ccn[nH]2)c1 [ASCIMINIB]		-0.37	-0.32	-0.06	0.02	0.19	-1	0.12		0.61	0.82	0.95		0.35		-0.17	0.07	0.17	0.46	0.63	Growth Rate (HEK-293T; 6 h, replicate number 1): -0.71; Growth Rate (Fibroblast; 0 h, replicate number 2): 0.89; Growth Rate (Fibroblast; 6 h, replicate number 1): 0.15; Growth Rate (Fibroblast; 6 h, replicate number 2): -0.75; Growth Rate (Fibroblast; 12 h, replicate number 1): 0.06; Growth Rate (U2OS; 0 h, replicate number 2): 0.44
CCN1CCN(Cc2ccc(NC(=O)Nc3ccc(Oc4cc(NC)ncn4)cc3)cc2C(F)(F)F)CC1 [AST-487]	-0.91	-0.54				-0.21	0.93			0.86	0.41	0.19	0.08		0.36	-0.4	-0.29		0.81	0.4	Growth Rate (Fibroblast; 6 h, replicate number 1): -1; Growth Rate (U2OS; 0 h, replicate number 2): -0.84
C[C@@H]1CN(CC(=O)N2CC(C)(C)c3nc(CO)c(Cc4ccc(F)cc4)cc32)[C@@H](CN2CCOC[C@H]2C)CN1 [ASTX-660]	0.18			0.97	0.89							0.98									Growth Rate (Fibroblast; 0 h, replicate number 2): 0.14
O=C(NC1CCNCC1)c1n[nH]cc1NC(=O)c1c(Cl)cccc1Cl [AT-7519]	-0.17	-0.74	-0.27	-0.2	-0.15	-0.4	-1	-0.1	0.18	0.4		-0.08	0.03	0.08	0.05	-0.63	-0.51	0.17	-0.23	-0.17	Growth Rate (HEK-293T; 6 h, replicate number 1): -0.3; Growth Rate (Fibroblast; 0 h, replicate number 2): -0.43; Growth Rate (Fibroblast; 6 h, replicate number 1): 0.78; Growth Rate (Fibroblast; 6 h, replicate number 2): 0.01; Growth Rate (Fibroblast; 12 h, replicate number 1): 0.38; Growth Rate (U2OS; 6 h, replicate number 1): 0.44; Growth Rate (U2OS; 6 h, replicate number 2): 0.71
O=C(Nc1c[nH]nc1-c1nc2cc(CN3CCOCC3)ccc2[nH]1)NC1CC1 [AT-9283]		-0.8	-0.57	-0.46	-0.38	-0.3			0.31	0.78	0.14	-0.18	-0.09	0.09	-0.05	-0.59	-0.43	0.66	0.81	0.43	Growth Rate (HEK-293T; 6 h, replicate number 1): -0.72; Growth Rate (U2OS; 0 h, replicate number 1): -1; Growth Rate (U2OS; 0 h, replicate number 2): 0.73
COc1cc(F)ccc1-c1ncnc(Nc2cccc(C[S@](C)(=N)=O)c2)n1 [ATUVECICLIB]		-0.61	-0.37	-0.26	-0.25	-0.36	-0.58	-0.33	0.33	0.18	0.07	0.03	-0.05	0.09	0.11	-0.56	-0.44	-0.01	-0.2	-0.14	Growth Rate (HEK-293T; 6 h, replicate number 1): -0.48; Growth Rate (Fibroblast; 6 h, replicate number 1): -0.11; Growth Rate (Fibroblast; 6 h, replicate number 2): -0.07; Growth Rate (Fibroblast; 12 h, replicate number 1): -0.04; Growth Rate (U2OS; 0 h, replicate number 2): 0.53; Growth Rate (U2OS; 6 h, replicate number 1): 0.72; Growth Rate (U2OS; 6 h, replicate number 2): 0.22
Cc1[nH]nc(C(F)(F)F)c1Cc1sc2c(c1C(=O)N1C[C@](C)(O)CO1)c(=O)n(C)c(=O)n2C(C)C [AZD3965]	-0.63		0.53	0.17	0.11	0.21		0.69	0.92	0.71	0.69	0.75	0.83	0.9		0.43	0.22		0.97	0.8	Growth Rate (HEK-293T; 0 h, replicate number 2): -0.81; Growth Rate (Fibroblast; 6 h, replicate number 1): 0.95
